In PubChem BioAssay (NCI):
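Compound exposure: 48 hours, 5 concentrations, 96-well plates. TGI denotes the concentration required for complete inhibition of growth.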

Assays:
Assay in all cases: NCI anticancer screen, dose series, 48 h
[1] = system: HCT-15 colon
[2] = system: SK-MEL-5 melanoma
[3] = system: HT29 colon
[4] = system: SNB-75 CNS
[5] = system: OVCAR-8 ovarian
[6] = system: COLO 205 colon
[7] = system: UO-31 renal
[8] = system: U251 CNS
[9] = system: MDA-MB-435
[10] = system: OVCAR-5 ovarian
[11] = system: NCI/ADR-RES ovarian
[12] = system: MOLT-4 leukemia
[13] = system: CAKI-1 renal
[14] = system: SK-OV-3 ovarian
[15] = system: RPMI-8226 leukemia
[16] = system: NCI-H226 lung
[17] = system: K-562 leukemia
[18] = system: KM12 colon
[19] = system: OVCAR-3 ovarian
[20] = system: SK-MEL-28 melanoma
[21] = system: T-47D breast
[22] = system: HS 578T breast
[23] = system: RXF 393 renal
[24] = system: PC-3 prostate
[25] = system: NCI-H522 lung
[26] = system: SF-295 CNS
[27] = system: MCF7 breast
[28] = system: HCC-2998 colon
[29] = system: SK-MEL-2 melanoma
[30] = system: IGROV1 ovarian
[31] = system: SNB-19 CNS
[32] = system: M14 melanoma
[33] = system: DU-145 prostate
[34] = system: NCI-H23 lung
[35] = system: SR leukemia
[36] = system: A498 renal
[37] = system: HCT-116 colon
[38] = system: SN12C renal
[39] = system: HOP-92 NSCLC
[40] = system: HOP-62 NSCLC
[41] = system: TK-10 renal
[42] = system: HL-60(TB) leukemia
[43] = system: UACC-62 melanoma
[44] = system: MALME-3M melanoma
[45] = system: BT-549 breast
[46] = system: 786-0 renal
[47] = system: EKVX NSCLC
[48] = system: NCI-H460 lung
[49] = system: SW-620 colon
[50] = system: SF-268 CNS
[51] = system: UACC-257 melanoma
[52] = system: CCRF-CEM leukemia
[53] = system: OVCAR-4 ovarian
[54] = system: LOX IMVI melanoma
[55] = system: A549 NSCLC
[56] = system: ACHN renal
[57] = system: SF-539 CNS
[58] = system: MDA-MB-231 breast

Compound: C/C(=N/NC(=O)c1ccncc1)C(F)(F)F
- TGI [1]: > 100 µM
- TGI [2]: > 100 µM
- TGI [3]: > 100 µM
- TGI [4]: > 100 µM
- TGI [5]: > 100 µM
- TGI [6]: > 100 µM
- TGI [7]: > 100 µM
- TGI [8]: > 100 µM
- TGI [9]: > 100 µM
- TGI [10]: > 100 µM
- TGI [11]: > 100 µM
- TGI [12]: > 100 µM
- TGI [13]: > 100 µM
- TGI [14]: > 100 µM
- TGI [15]: > 100 µM
- TGI [16]: > 100 µM
- TGI [17]: > 100 µM
- TGI [18]: > 100 µM
- TGI [19]: > 100 µM
- TGI [20]: > 100 µM
- TGI [21]: > 100 µM
- TGI [22]: > 100 µM
- TGI [23]: > 100 µM
- TGI [24]: > 100 µM
- TGI [25]: > 100 µM
- TGI [26]: > 100 µM
- TGI [27]: > 100 µM
- TGI [28]: > 100 µM
- TGI [29]: > 100 µM
- TGI [30]: > 100 µM
- TGI [31]: > 100 µM
- TGI [32]: > 100 µM
- TGI [33]: > 100 µM
- TGI [34]: > 100 µM
- TGI [35]: > 100 µM
- TGI [36]: > 100 µM
- TGI [37]: > 100 µM
- TGI [38]: > 100 µM
- TGI [39]: > 100 µM
- TGI [40]: > 100 µM
- TGI [41]: > 100 µM
- TGI [42]: > 100 µM
- TGI [43]: > 100 µM
- TGI [44]: > 100 µM
- TGI [45]: > 100 µM

Compound: Cc1nnc2n1N=C(c1cc(F)c(Cl)cc1Cl)/C(=C/c1ccc(-c3ccc([N+](=O)[O-])cc3)o1)S2
- TGI [1]: > 100 µM
- TGI [2]: > 100 µM
- TGI [3]: > 100 µM
- TGI [5]: > 100 µM
- TGI [6]: > 100 µM
- TGI [7]: > 100 µM
- TGI [8]: > 100 µM
- TGI [9]: > 100 µM
- TGI [10]: > 100 µM
- TGI [11]: > 100 µM
- TGI [12]: > 100 µM
- TGI [46]: > 100 µM
- TGI [47]: > 100 µM
- TGI [13]: > 100 µM
- TGI [14]: > 100 µM
- TGI [15]: > 100 µM
- TGI [48]: > 100 µM
- TGI [17]: > 100 µM
- TGI [18]: > 100 µM
- TGI [19]: > 100 µM
- TGI [20]: > 100 µM
- TGI [21]: > 100 µM
- TGI [22]: > 100 µM
- TGI [24]: > 100 µM
- TGI [25]: > 100 µM
- TGI [26]: > 100 µM
- TGI [27]: > 100 µM
- TGI [28]: > 100 µM
- TGI [29]: > 100 µM
- TGI [49]: > 100 µM
- TGI [30]: > 100 µM
- TGI [31]: > 100 µM
- TGI [50]: > 100 µM
- TGI [32]: > 100 µM
- TGI [34]: > 100 µM
- TGI [35]: > 100 µM
- TGI [51]: > 100 µM
- TGI [52]: > 100 µM
- TGI [36]: > 100 µM
- TGI [37]: > 100 µM
- TGI [38]: > 100 µM
- TGI [53]: > 100 µM
- TGI [39]: > 100 µM
- TGI [54]: > 100 µM
- TGI [40]: > 100 µM
- TGI [55]: > 100 µM
- TGI [42]: > 100 µM
- TGI [43]: > 100 µM
- TGI [44]: > 100 µM
- TGI [45]: > 100 µM
- TGI [56]: > 100 µM

Compound: NC(N)=N/N=C\c1c(-c2cccc([N+](=O)[O-])c2)nc2sccn12
- TGI [1]: > 100 µM
- TGI [57]: 54.9 µM
- TGI [2]: 36.1 µM
- TGI [3]: 4.23 µM
- TGI [6]: 14.5 µM
- TGI [7]: 37.7 µM
- TGI [9]: 5.16 µM
- TGI [10]: > 100 µM
- TGI [11]: > 100 µM
- TGI [12]: 5 µM
- TGI [46]: > 100 µM
- TGI [47]: 56.2 µM
- TGI [13]: 45.3 µM
- TGI [58]: 5.01 µM
- TGI [15]: > 100 µM
- TGI [48]: 78.7 µM
- TGI [17]: > 100 µM
- TGI [18]: 3.66 µM
- TGI [19]: 6.29 µM
- TGI [20]: 4.37 µM
- TGI [21]: 4.18 µM
- TGI [22]: 38.1 µM
- TGI [23]: 5.8 µM
- TGI [24]: 29 µM
- TGI [25]: 14.2 µM
- TGI [26]: 5.86 µM
- TGI [28]: 5.38 µM
- TGI [29]: 6.49 µM
- TGI [49]: 5.43 µM
- TGI [30]: 33.6 µM
- TGI [32]: 5.93 µM
- TGI [33]: 20.8 µM
- TGI [34]: 32.1 µM
- TGI [51]: 48.8 µM
- TGI [52]: > 100 µM
- TGI [36]: 64.1 µM
- TGI [37]: > 100 µM
- TGI [38]: 4.89 µM
- TGI [53]: 3.78 µM
- TGI [39]: 27.6 µM
- TGI [40]: > 100 µM
- TGI [41]: 4.53 µM
- TGI [55]: 51.6 µM
- TGI [42]: > 100 µM
- TGI [43]: 79 µM
- TGI [44]: 51.4 µM
- TGI [45]: 4.06 µM
- TGI [56]: 5.68 µM
